IC50, deltaTm and ΔTm data for 26 compounds are collected here from ChEMBL document CHEMBL2176970, “Discovery and optimization of a series of 3-(3-phenyl-3H-imidazo[4,5-b]pyridin-2-yl)pyridin-2-amines: orally bioavailable, selective, and potent ATP-independent Akt inhibitors” (J Med Chem, 2012).

Assay [1] deals with T1, RAC-alpha serine/threonine-protein kinase (Homo sapiens, UniProt P31749). Description: Inhibition of Akt1 (1 to 480) expressed in Sf9 cells using biotin-GRPRTSSFAEG as substrate after 20 mins by Alpha-screen assay. A general note: Alpha assays give light when donor and acceptor beads are brought close together.
Assay [2] addresses T1, RAC-alpha serine/threonine-protein kinase. The following applies: Sf9.
The target is the same in assay [3]. The assay can be described thus: Inhibition of Akt1 (1 to 480) expressed in Sf9 cells by indirect affinity mass spectrometry assay.
The target in assay [4] is T2, RAC-beta serine/threonine-protein kinase (Homo sapiens, UniProt P31751). Description: Inhibition of Akt2 (1 to 481) expressed in Sf9 cells using biotin-GRPRTSSFAEG as substrate after 20 mins by Alpha-screen assay.
Assay [5] concerns the target T2, RAC-beta serine/threonine-protein kinase. The assay can be described thus: Binding affinity to Akt2 (1 to 481) expressed in Sf9 cells assessed as change in melting temperature at 15 uM.
Assay [6] concerns the target T1, RAC-alpha serine/threonine-protein kinase. The assay can be described thus: Inhibition of Akt 1 in human AN3CA cells assessed as phosphorylation of Akt at T308 after 2 hrs by Western Blot analysis. It is filed as cell-based, AN3-CA. On the technique in general: Immunoblotting shows a protein as a band on a membrane.
Assay [7] deals with T3, RAC-gamma serine/threonine-protein kinase (Homo sapiens, UniProt Q9Y243). Description: Inhibition of Akt3 (1 to 479) expressed in Sf9 cells using biotin-GRPRTSSFAEG as substrate after 20 mins by Alpha-screen assay.
For assay [8], the target named is T1, RAC-alpha serine/threonine-protein kinase. Description: Inhibition of Akt1 in human AN3CA cells assessed as phosphorylation of Akt at S473 after 2 hrs by Western Blot analysis. The format is cell-based, AN3-CA.
Assay [9] has the same target. Description: Inhibition of Akt1 in human A2780 cells assessed as phosphorylation of Akt at S473 after 2 hrs by Western Blot analysis. It is filed as cell-based.
Assay [10] shares this target. The assay can be described thus: Inhibition of Akt 1 in human A2780 cells assessed as phosphorylation of Akt at T308 after 2 hrs by Western Blot analysis. The format is cell-based.
For assay [11], the system named is AN3-CA. Description: Antiproliferative activity against human AN3CA cells after 72 hrs by MTS assay. It is filed as functional, cell-based. In general terms: Formazan colour is commonly taken as a measure of viable cells.
For assay [12], the system named is A2780. The assay can be described thus: Antiproliferative activity against human A2780 cells after 72 hrs by MTS assay. The format is functional, cell-based. The following applies: A2780, 72 h.
Assay [13] deals with T1, RAC-alpha serine/threonine-protein kinase. The assay can be described thus: Inhibition of Akt1 in human A2780 cells assessed as phosphorylation PRAS40 at T246 after 2 hrs by Western Blot analysis. The format is cell-based.
In assay [14] the target is T3, RAC-gamma serine/threonine-protein kinase. Description: Binding affinity to Akt3 (1 to 479) expressed in Sf9 cells assessed as change in melting temperature at 15 uM.
The target in assay [15] is T1, RAC-alpha serine/threonine-protein kinase. Description: Inhibition of Akt1 in human AN3CA cells assessed as phosphorylation PRAS40 at T246 after 2 hrs by Western Blot analysis. The format is cell-based, AN3-CA.

Calls of active or inactive are those of the source. No cut-off for these calls is given here.

T2 sequence (P31751 whole entry): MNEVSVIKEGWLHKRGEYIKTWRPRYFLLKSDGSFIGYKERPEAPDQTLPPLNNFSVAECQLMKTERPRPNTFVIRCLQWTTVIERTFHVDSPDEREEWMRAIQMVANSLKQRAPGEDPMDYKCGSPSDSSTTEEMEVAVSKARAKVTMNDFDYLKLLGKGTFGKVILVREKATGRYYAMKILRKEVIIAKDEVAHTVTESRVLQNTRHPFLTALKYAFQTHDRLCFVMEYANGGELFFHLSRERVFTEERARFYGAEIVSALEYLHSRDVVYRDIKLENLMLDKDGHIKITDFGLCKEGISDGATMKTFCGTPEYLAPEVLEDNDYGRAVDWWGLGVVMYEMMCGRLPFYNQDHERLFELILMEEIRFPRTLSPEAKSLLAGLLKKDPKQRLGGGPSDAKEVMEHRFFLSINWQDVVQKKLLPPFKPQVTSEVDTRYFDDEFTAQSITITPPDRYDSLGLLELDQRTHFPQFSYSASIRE
T1 sequence (P31749 whole entry): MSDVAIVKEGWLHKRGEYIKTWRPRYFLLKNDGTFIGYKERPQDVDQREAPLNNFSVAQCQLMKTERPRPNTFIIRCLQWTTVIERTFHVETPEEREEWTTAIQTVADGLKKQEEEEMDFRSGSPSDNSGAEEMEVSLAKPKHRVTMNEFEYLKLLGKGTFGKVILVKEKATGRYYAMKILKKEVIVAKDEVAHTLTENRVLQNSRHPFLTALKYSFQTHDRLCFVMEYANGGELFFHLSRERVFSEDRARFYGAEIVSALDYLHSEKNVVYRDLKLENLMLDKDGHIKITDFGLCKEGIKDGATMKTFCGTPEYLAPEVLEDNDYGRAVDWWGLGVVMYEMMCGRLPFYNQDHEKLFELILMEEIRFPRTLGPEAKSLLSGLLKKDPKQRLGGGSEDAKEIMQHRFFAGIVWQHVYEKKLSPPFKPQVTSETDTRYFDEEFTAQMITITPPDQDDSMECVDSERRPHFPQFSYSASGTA
T3 sequence (Q9Y243 whole entry): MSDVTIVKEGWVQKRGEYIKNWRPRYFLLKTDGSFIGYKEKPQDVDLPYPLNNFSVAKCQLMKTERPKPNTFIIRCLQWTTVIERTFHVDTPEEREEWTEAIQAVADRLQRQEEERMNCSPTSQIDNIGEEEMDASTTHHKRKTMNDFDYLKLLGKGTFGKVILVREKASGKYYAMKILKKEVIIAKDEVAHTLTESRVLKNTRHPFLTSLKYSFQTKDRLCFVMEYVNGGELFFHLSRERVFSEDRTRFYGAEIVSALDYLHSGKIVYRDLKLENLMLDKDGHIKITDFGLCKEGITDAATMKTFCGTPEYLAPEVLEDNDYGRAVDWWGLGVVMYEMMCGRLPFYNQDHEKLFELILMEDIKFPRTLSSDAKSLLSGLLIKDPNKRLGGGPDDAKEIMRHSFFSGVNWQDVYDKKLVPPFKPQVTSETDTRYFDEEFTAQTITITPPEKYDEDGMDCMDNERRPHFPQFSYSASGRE

With `CC(C)(C)c1cccc(-n2c(-c3cccnc3N)nc3cccnc32)c1`, the half-inhibitory concentration (IC50) (as a rule, the concentration that gives 50% inhibition) in assay [1] was above 300000 nM. Moreover, the deltaTm entry in assay [2] was “inactive”.

On to `COc1ccccc1Cn1c(-c2ccncc2)nc2cc(Br)cnc21`, for which the figures for the IC50 in assay [1] and in assay [3] were above 300000 nM and 5900 nM, respectively. For the same compound, the deltaTm entry in [2] is “inactive”.

Take `Nc1ccc(-n2c(-c3cccnc3N)nc3cccnc32)cc1`: inhibition in [1] was half-maximal at 740 nM (IC50). The ΔTm (as a rule, the change in melting temperature against a reference sample) in assay [2] is 4.1 °C.

The compound `CC(C)(C)c1ccc(-n2c(-c3ccncc3)nc3cccnc32)cc1` yielded a concentration for half-maximal inhibition (IC50) in assay [1] above 300000 nM. The deltaTm entry in assay [2] is “inactive”.

In [1], `CC(=O)NCc1ccc(-n2c(-c3cccnc3N)nc3cccnc32)cc1` yielded a 50% inhibitory concentration (IC50) of 810 nM. Besides, in assay [2], the shift in melting temperature (ΔTm) is 2.3 °C.

Consider `Nc1ncccc1-c1nc2ccc(-c3cccnc3)nc2n1-c1ccc(CNC(=O)c2cccc(F)c2)cc1`, for which the IC50 in assay [4] is 80 nM; in assay [6], 340 nM; in assay [7], 660 nM; in assay [8], 95 nM; in assay [9], 190 nM; in [1], 47 nM. Also, the half-maximal inhibitory concentration (IC50) in assay [10] stood at 690 nM; in [11], 10000 nM; in assay [12], 10000 nM; in [13] it was 1300 nM; in [15], 2100 nM. The ΔTm in assay [5] amounted to 5.7 °C; in [14] it was 1.6 °C; in [2], 11.1 °C.

In the case of `Nc1ncccc1-c1nc2cccnc2n1-c1cccc(CNC(=O)c2ccccc2)c1`, the IC50 in assay [1] turned out to be 13000 nM. Further, in [2], the deltaTm result was “inactive”.

As to `CC(=O)Nc1cccc(-c2ccc3nc(-c4cccnc4N)n(-c4ccc(CNC(=O)c5ccccc5)cc4)c3n2)c1`, the concentration for half-maximal inhibition (IC50) is 47 nM in assay [4]; 170 nM in assay [6]; 170 nM in assay [7]; 110 nM in assay [8]; 130 nM in [9]; 15 nM in assay [1]. Further, the half-maximal inhibitory concentration (IC50) turned out to be 140 nM in [10]; 1500 nM in assay [11]; 1600 nM in assay [12]; 910 nM in assay [13]; 840 nM in [15]. Besides, the ΔTm in assay [5] was determined as 6.7 °C; in assay [14] it was 2.5 °C; in assay [2] it was 12.8 °C.

Consider `COc1ccccc1Cn1c(-c2cccnc2N)nc2cc(Br)cnc21`, for which the IC50 in assay [1] was above 300000 nM. Besides, the deltaTm entry in assay [2] was “inactive”.

In turn, `CC(C)(C)c1ccc(-n2c(-c3cccnc3N)nc3cc(Br)cnc32)cc1` came in with an IC50 in assay [1] above 300000 nM. Besides, in assay [2], the ΔTm turned out to be 0.9 °C.

On to `Nc1ncccc1-c1nc2cccnc2n1-c1ccc(CNCc2ccccc2)cc1`, for which 260 nM corresponded to half-maximal inhibition in [1] (IC50). Further, the thermal shift (ΔTm) in [2] turned out to be 4.9 °C.

For `Nc1ncccc1-c1nc2ccc(-c3cccnc3)nc2n1-c1ccc(CC(=O)Nc2ccccc2)cc1`, the IC50 in [4] is 25 nM; in assay [6] it was 51 nM; in assay [7], 390 nM; in assay [8], 69 nM; in assay [9], 65 nM; in assay [1] it was 50 nM. Also, the half-maximal inhibitory concentration (IC50) in assay [10] came out at 55 nM; in [11] it was 8800 nM; in assay [12] it was 9400 nM; in assay [13] it was 480 nM; in assay [15] it was 2500 nM. The ΔTm in assay [5] is 5.1 °C; in assay [14], 1.8 °C; in assay [2], 10.8 °C.

Turning to `COc1ccccc1Cn1c(-c2cccnc2N)nc2cccnc21`, it took 58000 nM to reach half-maximal inhibition in assay [1] (IC50). Also, in [2], the deltaTm result was “inactive”.

On to `Nc1ncccc1-c1nc2cc(-c3ccccc3)cnc2n1-c1ccc(CNC(=O)c2ccccc2)cc1`, for which the 50% inhibitory concentration (IC50) is 51000 nM in assay [4]; 1100 nM in [6]; above 100000 nM in [7]; 160 nM in assay [8]; 330 nM in [9]; 33 nM in assay [1]. The IC50 in [10] is 680 nM; in assay [11] it was above 100000 nM; in [12] it was above 100000 nM; in assay [13], 1800 nM; in assay [15] it was 980 nM. In addition, the values for the ΔTm in assay [5] and in assay [2] were 1.2 °C and 5.61 °C, respectively. In [14], the deltaTm entry is “inactive”.

`Nc1ncccc1-c1nc2cccnc2n1-c1ccc(NC(=O)c2ccccc2)cc1` displayed a concentration for half-maximal inhibition (IC50) in [1] of 14 nM. Further, the ΔTm in assay [2] is 7.3 °C.

As to `NCc1ccc(-n2c(-c3cccnc3)nc3cccnc32)cc1`, the half-maximal inhibitory concentration (IC50) in [1] turned out to be 8800 nM. The deltaTm entry in [2] is “inactive”.

Turning to `Nc1ncccc1-c1nc2cc(Br)cnc2n1-c1ccc(CNC(=O)c2ccccc2)cc1`, the IC50 is 130 nM in [4]; above 10000 nM in [6]; above 10000 nM in assay [7]; 2500 nM in assay [8]; below 12 nM in [9]; 27 nM in assay [1]. For the same compound, the 50% inhibitory concentration (IC50) in [10] is 170 nM; in assay [11], 60000 nM; in assay [12] it was 65000 nM; in assay [13] it was 3100 nM; in assay [15] it was above 10000 nM. The shift in melting temperature (ΔTm) in [5] was found to be 3 °C; in assay [14], 1 °C; in assay [2], 8.1 °C.

In the case of `Nc1ncccc1-c1nc2ccc(-c3cccnc3)nc2n1-c1ccc(CNC(=O)c2ccccc2)cc1`, the concentration for half-maximal inhibition (IC50) was determined as 32 nM in assay [4]; 4200 nM in assay [6]; 370 nM in [7]; 1400 nM in [8]; 34 nM in assay [9]; 67 nM in assay [10]. In addition, the half-maximal inhibitory concentration (IC50) amounted to 13000 nM in [11], 23000 nM in assay [12], 740 nM in assay [13] and 3200 nM in assay [15]. Also, the ΔTm in assay [5] was 4 °C; in [14], 1 °C; in assay [2], 9.7 °C.

In turn, `CC(=O)Nc1ccc(-n2c(-c3cccnc3N)nc3cccnc32)cc1` returned an IC50 in assay [1] of 1300 nM. Also, in [2], the ΔTm worked out at 3.7 °C.

Consider `Nc1ncccc1-c1nc2ccc(-c3ccccc3)nc2n1-c1ccc(CNC(=O)c2ccccc2)cc1`, for which the IC50 in assay [4] was 35 nM; in [6] it was above 10000 nM; in assay [7], 390 nM; in assay [8], above 10000 nM; in assay [9], 68 nM; in assay [1], 24 nM. Further, the IC50 in assay [10] is 180 nM; in assay [11], 5500 nM; in [12], 9500 nM; in assay [13], 410 nM; in assay [15], above 10000 nM. Besides, the ΔTm amounted to 6.4 °C in assay [5], 1.8 °C in assay [14] and 11 °C in assay [2].

As for `Nc1ncccc1-c1nc2cc(C3CCCC3)cnc2n1-c1ccc(CNC(=O)c2ccccc2)cc1`, the half-inhibitory concentration (IC50) in assay [4] is 800 nM; in assay [6], 9400 nM; in assay [7], above 100000 nM; in assay [8], 3700 nM; in [1], 110 nM; in assay [10], 210 nM. Besides, the half-inhibitory concentration (IC50) was 12000 nM in [3]; 33000 nM in [11]; 65000 nM in [12]; 2100 nM in assay [13]; above 10000 nM in [15]. The thermal shift (ΔTm) in assay [5] came out at 3.3 °C; in assay [2] it was 6 °C. In assay [14], the deltaTm result is “inactive”.

In the case of `Nc1ncccc1-c1nc2cccnc2n1-c1ccc(CNC(=O)Cc2ccccc2)cc1`, the ΔTm in assay [2] turned out to be 4.7 °C.

`CC(C)(C)c1ccc(-n2c(-c3cccnc3)nc3cccnc32)cc1` displayed an IC50 in assay [1] of 185000 nM. In assay [2], the deltaTm entry is “inactive”.

For the compound `CC(=O)Nc1cccc(-c2ccc3nc(-c4cccnc4N)n(-c4ccc(CC(=O)Nc5cccc(F)c5)cc4)c3n2)c1`, the IC50 in assay [4] worked out at 24 nM; in assay [6], 260 nM; in assay [7], 2500 nM; in assay [8], 90 nM; in [9], 120 nM; in assay [1], 17 nM. Further, the half-inhibitory concentration (IC50) in assay [10] was found to be 15 nM; in [11], 1700 nM; in assay [12], 3300 nM; in [13], 140 nM; in assay [15] it was 1500 nM. Besides, the ΔTm in [5] amounted to 6.7 °C; in [14], 1.5 °C; in assay [2], 11.1 °C.

Take `CC(C)(C)c1ccc(-n2c(-c3cccnc3N)nc3cccnc32)cc1`: the thermal shift (ΔTm) in assay [2] worked out at 1.9 °C.

As to `Nc1ncccc1-c1nc2cc(-c3cccnc3)cnc2n1-c1ccc(CNC(=O)c2cccc(F)c2)cc1`, the IC50 in assay [4] was 27 nM; in assay [6], 49 nM; in [8] it was 46 nM; in [9] it was 54 nM; in assay [1], 5.2 nM; in assay [10], 200 nM. The IC50 in assay [11] worked out at 13000 nM; in assay [12] it was 19000 nM; in assay [13], 580 nM; in [15], 820 nM. Also, the ΔTm in assay [5] came out at 5.4 °C; in [14], 1.5 °C; in [2] it was 9.4 °C.
